This note sets out measurements from patent US10774071B2, “PD-1/PD-L1 inhibitors” (Gilead Sciences, Inc., priority 2018, dated 2020).

Each structure is given as a SMILES string. Read-outs that look alike come from different tables or passages of the source.

The target of one test is PD-1/PD-L1 (Homo sapiens (Human), UniProt Q9NZQ7). Nature of the test: PD-1/PD-L1 biochemical protein-protein interaction assay (ALPHA). It is filed as binding. To be noted: read-out: IC50 PD-L1-PD1.
Another test concerns the target FFA1 (h) (GPR40) (Homo sapiens (Human), UniProt O14842). Kind of test: GPR40 functional assay, antagonist effect (intracellular Ca2+, fluorimetry). It is filed as cell-based. To be noted: stimulus linoleic acid 20000 nM; for inhibition at 10 µM: HEK293, human recombinant GPR40 in HEK-293 cells. As for the experimental part:
(§1) Select compounds were tested in a functional GRP40 assay as described in Briscoe, C. P. et al. (Brit. J. Pharmacol., (2006), 148: 619-628) to determine agonist/antagonist activity. […] Using a HEK-293 cell line transiently transduced to express GPR40, the agonist/antagonist activity of select compounds has been assessed.

The target of a further test is FFA1 (h) (GRP40) (Homo sapiens (Human), UniProt O14842). Nature of the test: GPR40 functional assay, agonist effect (intracellular Ca2+, fluorimetry). In kind it is cell-based. To be noted: HEK293, human recombinant GPR40 in HEK-293 cells, control 100 μM linoleic acid. As for the experimental part: as §1
Chain of FFA1 (h) (GRP40) (O14842 whole entry): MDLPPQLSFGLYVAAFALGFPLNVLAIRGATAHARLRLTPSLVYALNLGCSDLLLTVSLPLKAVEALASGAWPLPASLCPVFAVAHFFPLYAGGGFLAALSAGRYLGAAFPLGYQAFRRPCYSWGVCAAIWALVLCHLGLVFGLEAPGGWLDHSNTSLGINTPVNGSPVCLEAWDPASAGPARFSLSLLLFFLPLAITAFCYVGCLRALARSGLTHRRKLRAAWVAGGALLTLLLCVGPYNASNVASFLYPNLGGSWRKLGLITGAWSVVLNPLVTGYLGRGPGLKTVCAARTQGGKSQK
The next test addresses PD-L1 (Homo sapiens (Human), UniProt Q9NZQ7). Nature of the test: PD-L1/PD-L1 dimerization biochemical protein-protein interaction assay (ALPHA). In kind it is binding. To be noted: read-out: AC50 PDL1 Dimer 1 nM.
[1] abbreviates: 0.3 nM His tagged PD-L1, 2.5 nM biotinylated Fc-PD-1, Table 3B.
Where [2] appears, read: 1st replicate, read-out: % inhibition of control agonist response, 1st.
Where [3] appears, read: 2nd replicate, read-out: % inhibition of control agonist response, 2nd.
The mark [4] stands for this setting: mean, read-out: % inhibition of control agonist response, Mean.
Setting [5] is: 1st replicate, read-out: % of control agonist response, 1st.
Where [6] appears, read: 2nd replicate, read-out: % of control agonist response, 2nd.
[7] abbreviates: mean, read-out: % of control agonist response, Mean.
[8] abbreviates: 0.5 nM His tagged PD-L1 and 0.5 nM FLAG tagged PD-L1, Table 4B.
Where [9] appears, read: 0.3 nM His tagged PD-L1, 2.5 nM biotinylated Fc-PD-1, readings of 0.064 nM are equal to or less than 0.064 nM.
Setting [10] is: 0.5 nM His tagged PD-L1 and 0.5 nM FLAG tagged PD-L1, Table 4A.

Chain of FFA1 (h) (GPR40) (O14842 whole entry): as above
Chain of PD-L1 (Q9NZQ7 19-238): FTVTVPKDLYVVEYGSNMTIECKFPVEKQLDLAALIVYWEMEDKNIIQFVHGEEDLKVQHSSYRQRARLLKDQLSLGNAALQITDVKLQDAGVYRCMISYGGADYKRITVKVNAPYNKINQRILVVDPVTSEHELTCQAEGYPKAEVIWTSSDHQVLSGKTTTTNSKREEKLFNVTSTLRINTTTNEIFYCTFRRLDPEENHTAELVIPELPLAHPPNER
Chain of PD-L1 (Q9NZQ7 19-238): as above
Chain of PD-1/PD-L1 (Q9NZQ7 19-238): as above

Broadly, the IC50 is the concentration at which inhibition is half-maximal. The term inhibition denotes the drop in the measured response relative to a control, in per cent. As a reminder, the AC50 is the concentration giving half of the maximal activity seen. In the case of `COc1nc(-c2cccc(-c3cccc4c3CC[C@@H]4Oc3nc(OC)c(CN4CC5(C(=O)O)CCC4CC5)nc3C)c2Cl)ccc1CNC[C@@H]1CCC(=O)N1` [B-149], the IC50 at PD-1/PD-L1 (setting [1]) turned out to be 0.064 nM. The inhibition at 10 µM on FFA1 (h) (GPR40) (setting [2]) was found to be 8%; at FFA1 (h) (GPR40) (setting [3]), 15%; on FFA1 (h) (GPR40) (setting [4]), 11.5%. Further, the activity at 10 µM is -2% at FFA1 (h) (GRP40) (setting [5]), -0.5% at FFA1 (h) (GRP40) (setting [6]) and -1.2% on FFA1 (h) (GRP40) (setting [7]). Further, on PD-L1 (setting [8]), the AC50 was 32.4 nM.

Turning to `COc1nc(-c2cccc(-c3cccc4c3CC[C@@H]4Nc3nc(OC)c(CNC4(C(=O)O)CC4)cc3C(F)(F)F)c2Cl)ccc1CNC[C@@H]1CCC(=O)N1` [A-41], at PD-1/PD-L1 (setting [9]), the IC50 was ≤ 0.064 nM. Moreover, the figures for the inhibition at 10 µM on FFA1 (h) (GPR40) (setting [2]), on FFA1 (h) (GPR40) (setting [3]) and at FFA1 (h) (GPR40) (setting [4]) were 23.1%, 13.1% and 18.1%, respectively. Besides, the activity at 10 µM at FFA1 (h) (GRP40) (setting [5]) worked out at 1.1%; on FFA1 (h) (GRP40) (setting [6]), 0.1%; at FFA1 (h) (GRP40) (setting [7]) it was 0.6%. Also, the half-maximal activity concentration (AC50) on PD-L1 (setting [10]) stood at 7.6 nM.

With `COc1nc(-c2cccc(-c3cccc4c3CC[C@@H]4Oc3nc(OC)c(CNC4(C(=O)O)CC4)cc3C(F)(F)F)c2Cl)ccc1CNC[C@@H]1CCC(=O)N1` [B-36], the IC50 on PD-1/PD-L1 (setting [1]) was determined as 0.064 nM. Also, the inhibition at 10 µM on FFA1 (h) (GPR40) (setting [2]) was determined as 30.5%; on FFA1 (h) (GPR40) (setting [3]), 17%; on FFA1 (h) (GPR40) (setting [4]), 23.7%. Further, the activity at 10 µM was -0.4% at FFA1 (h) (GRP40) (setting [5]), -0.5% at FFA1 (h) (GRP40) (setting [6]) and -0.4% on FFA1 (h) (GRP40) (setting [7]). In addition, on PD-L1 (setting [8]), the AC50 was 3.77 nM.

Consider `COc1nc(-c2cccc(-c3cccc4c3CC[C@@H]4Nc3nc(OC)c(CN4CC5(C(=O)O)CCC4CC5)nc3C(F)(F)F)c2Cl)ccc1CNC[C@@H]1CCC(=O)N1` [A-18, 2-((5-(((S)-4-(2-chloro-3-(6-methoxy-5-(((((S)-5-oxopyrrolidin-2-yl)methyl)amino)methyl)pyridin-2-yl)phenyl)-2,3-dihydro-1H-inden-1-yl)amino)-3-methoxy-6-(trifluoromethyl)pyrazin-2-yl)methyl)-2-azabicyclo[2.2.2]octane-4-carboxylic acid], for which the IC50 on PD-1/PD-L1 (setting [9]) is ≤ 0.064 nM. Besides, the “% inhibition of control agonist response, 1st” value at FFA1 (h) (GPR40) (10 μM, human recombinant GPR40 in HEK-293 cells, 1st replicate) is 8.3%. The “% inhibition of control agonist response, 2nd” value on FFA1 (h) (GPR40) (10 μM, human recombinant GPR40 in HEK-293 cells, 2nd replicate) was 17.4%. In addition, on FFA1 (h) (GPR40) (10 μM, human recombinant GPR40 in HEK-293 cells, mean), the “% inhibition of control agonist response, Mean” value amounted to 12.8%. In addition, the values for the activity at 10 µM on FFA1 (h) (GRP40) (setting [5]), at FFA1 (h) (GRP40) (setting [6]) and on FFA1 (h) (GRP40) (setting [7]) were -0.6%, -1.9% and -1.3%, respectively. Moreover, the concentration at half-maximal activity (AC50) on PD-L1 (setting [10]) is 15.7 nM.
